Measurements: PubChem BioAssay AID248 (DTP/NCI, 2004)
Several values for one entry are separate records, joined by “and”; a condition that tells them apart may be missing. Equal entries are not always repeated. Toxic doses and inconclusive results are not listed. Cut-off read from the data, not from the text of the source: active = T/C of 150% or more; inactive = T/C below 125%.

Test system: L1210 leukemia ip in BDF1 mice, survival T/C
Experiment: NCI In Vivo Anticancer Drug Screen. Data for tumor model L1210 Leukemia (intraperitoneal) in B6D2F1 (BDF1) mice
Settings: endpoint: mean survival time, higher = longer survival
How it was run: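 Tumor was transplanted into mice, which were then dosed with test compound or vehicle alone. Survival was recorded for each group, and the treated figure was expressed relative to the control figure.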

[1] = dose: 100.0 mg/kg/injection, schedule: Q01DX001 (ip), vehicle: Klucel (hydroxypropylcellulose) (HPC)
[2] = dose: 200.0 mg/kg/injection, schedule: Q01DX001 (ip), vehicle: Klucel (hydroxypropylcellulose) (HPC)
[3] = dose: 400.0 mg/kg/injection, schedule: Q01DX001 (ip), vehicle: Klucel (hydroxypropylcellulose) (HPC)
[4] = dose: 100.0 mg/kg/injection, schedule: Q01DX001 (ip), vehicle: carboxymethylcellulose (CMC)
[5] = dose: 100.0 mg/kg/injection, schedule: Q04DX002 (ip), vehicle: saline
[6] = dose: 200.0 mg/kg/injection, schedule: Q01DX001 (ip), vehicle: carboxymethylcellulose (CMC)
[7] = dose: 200.0 mg/kg/injection, schedule: Q01DX009 (ip), vehicle: saline
[8] = dose: 200.0 mg/kg/injection, schedule: Q04DX002 (ip), vehicle: saline
[9] = dose: 400.0 mg/kg/injection, schedule: Q01DX001 (ip), vehicle: carboxymethylcellulose (CMC)
[10] = dose: 100.0 mg/kg/injection, schedule: Q01DX001 (ip), vehicle: saline with Tween-80
[11] = dose: 200.0 mg/kg/injection, schedule: Q01DX001 (ip), vehicle: saline with Tween-80
[12] = dose: 400.0 mg/kg/injection, schedule: Q01DX001 (ip), vehicle: saline with Tween-80
[13] = dose: 100.0 mg/kg/injection, schedule: Q04DX003 (ip), vehicle: saline
[14] = dose: 200.0 mg/kg/injection, schedule: Q04DX003 (ip), vehicle: saline
[15] = dose: 400.0 mg/kg/injection, schedule: Q04DX003 (ip), vehicle: saline
[16] = dose: 100.0 mg/kg/injection, schedule: Q01DX009 (ip), vehicle: Klucel (hydroxypropylcellulose) (HPC)
[17] = dose: 200.0 mg/kg/injection, schedule: Q01DX009 (ip), vehicle: Klucel (hydroxypropylcellulose) (HPC)
[18] = dose: 400.0 mg/kg/injection, schedule: Q01DX009 (ip), vehicle: Klucel (hydroxypropylcellulose) (HPC)
[19] = dose: 25.0 mg/kg/injection, schedule: Q01DX009 (ip), vehicle: saline with Tween-80
[20] = dose: 50.0 mg/kg/injection, schedule: Q01DX009 (ip), vehicle: saline with Tween-80
[21] = dose: 100.0 mg/kg/injection, schedule: Q01DX009 (ip), vehicle: saline with Tween-80
[22] = dose: 100.0 mg/kg/injection, schedule: Q04DX003 (ip), vehicle: saline with Tween-80
[23] = dose: 200.0 mg/kg/injection, schedule: Q01DX009 (ip), vehicle: saline with Tween-80
[24] = dose: 200.0 mg/kg/injection, schedule: Q04DX003 (ip), vehicle: saline with Tween-80
[25] = dose: 400.0 mg/kg/injection, schedule: Q04DX003 (ip), vehicle: saline with Tween-80

Measured: T/C

COc1cc2c(cc1OC)C1(NCC2)C(=O)c2ccccc2C1=O
inactive: [1] 100 % of control | [2] 106 % of control | [3] 117 % of control

Cn1c(C=O)cc2ccccc21
inactive: [4] 90 % of control | dose: 100.0 mg/kg/injection, schedule: Q01DX009 (ip), vehicle: saline 94 % of control | [5] 110 % of control | [6] 98 % of control | [7] 97 % of control | [8] 104 % of control | [9] 102 % of control | dose: 400.0 mg/kg/injection, schedule: Q04DX002 (ip), vehicle: saline 100 % of control

O=C(NCCCl)N(O)C12CC3CC(CC(C3)C1)C2
inactive: [10] 90 % of control | [11] 97 % of control | [12] 98 % of control

CCOC(=O)C[N+]1(C)CCC(O)CC1 (centres undefined)
inactive: [13] 98 % of control | [14] 98 % of control | [15] 101 % of control

COc1cc(NC(C)=O)c2ncccc2c1NC(C)=O
inactive: dose: 50.0 mg/kg/injection, schedule: Q01DX001 (ip), vehicle: carboxymethylcellulose (CMC) 96 % of control | [4] 102 % of control | [6] 96 % of control | [9] 94 % of control

c1ccc(Nc2ncn[nH]2)cc1
inactive: dose: 100.0 mg/kg/injection, schedule: Q04DX002 (ip), vehicle: gum acacia 106 % of control | dose: 200.0 mg/kg/injection, schedule: Q04DX002 (ip), vehicle: gum acacia 103 % of control | dose: 400.0 mg/kg/injection, schedule: Q04DX002 (ip), vehicle: gum acacia 117 % of control

C=CCc1ccc(OC(=O)Nc2cccc(OC)c2)c(OC)c1
inactive: [16] 106 % of control | [17] 98 % of control | [18] 88 % of control

O=C(NC1CCCCC1)C1COc2ccccc2O1 (centres undefined)
inactive: [1] 98 % of control | [16] 95 % of control | [2] 108 % of control | [17] 93 % of control | [3] 98 % of control | [18] 97 % of control

CCCCN(CCCC)CN(CCCC)CCCC
inactive: [19] 97 % of control | [20] 100 % of control | [21] 100 % of control | [5] 95 % of control | [8] 95 % of control

COc1ccc2c(c1C)CCC1(COC(C)=O)CC(C)(O)C(O)CC21 (centres undefined)
inactive: dose: 100.0 mg/kg/injection, schedule: Q01DX009 (ip), vehicle: saline sonified 96 % of control | dose: 200.0 mg/kg/injection, schedule: Q01DX009 (ip), vehicle: saline sonified 94 % of control | dose: 400.0 mg/kg/injection, schedule: Q01DX009 (ip), vehicle: saline sonified 93 % of control

CCOC(C)C1C2CCCC(C)C21 (centres undefined)
inactive: [13] 102 % of control | [14] 96 % of control | [15] 93 % of control

NC(=S)N/N=C\c1cc2ccccc2c2ccccc12
inactive: dose: 50.0 mg/kg/injection, schedule: Q01DX001 (ip), vehicle: saline 95 % of control | dose: 100.0 mg/kg/injection, schedule: Q01DX001 (ip), vehicle: saline 95 % of control | dose: 200.0 mg/kg/injection, schedule: Q01DX001 (ip), vehicle: saline 95 % of control | dose: 400.0 mg/kg/injection, schedule: Q01DX001 (ip), vehicle: saline 98 % of control

COc1ccc(N=Cc2ccc(Cl)cc2)cc1C(F)(F)F
inactive: dose: 100.0 mg/kg/injection, schedule: Q04DX003 (ip), vehicle: Klucel (hydroxypropylcellulose) (HPC) 98 % of control | dose: 200.0 mg/kg/injection, schedule: Q04DX003 (ip), vehicle: Klucel (hydroxypropylcellulose) (HPC) 89 % of control | dose: 400.0 mg/kg/injection, schedule: Q04DX003 (ip), vehicle: Klucel (hydroxypropylcellulose) (HPC) 104 % of control

COc1cc(Cc2cnc(NC(C)=O)nc2NC(C)=O)cc(OC)c1OC
inactive: dose: 12.5 mg/kg/injection, schedule: Q01DX009 (ip), vehicle: saline with Tween-80 92 % of control | dose: 12.5 mg/kg/injection, schedule: Q04DX003 (ip), vehicle: saline with Tween-80 101 % of control | [19] 95 % of control | dose: 25.0 mg/kg/injection, schedule: Q04DX003 (ip), vehicle: saline with Tween-80 101 % of control | [20] 88 % of control | dose: 50.0 mg/kg/injection, schedule: Q04DX003 (ip), vehicle: saline with Tween-80 95 % of control

CCOP(=O)(NCCCOC)OCC
inactive: dose: 0.78 mg/kg/injection, schedule: Q01DX009 (ip), vehicle: acetone 96 % of control | dose: 1.56 mg/kg/injection, schedule: Q01DX009 (ip), vehicle: acetone 100 % of control | dose: 3.12 mg/kg/injection, schedule: Q01DX009 (ip), vehicle: acetone 91 % of control | dose: 3.12 mg/kg/injection, schedule: Q04DX003 (ip), vehicle: saline 93 % of control | dose: 4.6 mg/kg/injection, schedule: Q01DX009 (ip), vehicle: saline 95 % of control | dose: 7.0 mg/kg/injection, schedule: Q01DX009 (ip), vehicle: saline 98 % of control | dose: 10.5 mg/kg/injection, schedule: Q01DX009 (ip), vehicle: saline 95 % of control | dose: 12.5 mg/kg/injection, schedule: Q01DX001 (ip), vehicle: acetone 94 % of control | dose: 15.0 mg/kg/injection, schedule: Q01DX009 (ip), vehicle: acetone 94 % of control | dose: 23.0 mg/kg/injection, schedule: Q01DX009 (ip), vehicle: acetone 94 % of control

[Cl][Nd]([Cl])[Cl]
inactive: dose: 12.5 mg/kg/injection, schedule: Q01DX009 (ip), vehicle: saline 98 % of control | dose: 25.0 mg/kg/injection, schedule: Q01DX009 (ip), vehicle: saline 87 % of control | dose: 50.0 mg/kg/injection, schedule: Q01DX009 (ip), vehicle: saline 93 % of control and 91 % of control | [13] 100 % of control | [7] 86 % of control | [14] 100 % of control

Nc1nc(-c2ccc(O)cc2)nc2[nH]ncc12
inactive: [1] 91 % of control | [2] 100 % of control | [3] 94 % of control

CCNC1CCCCC1
inactive: [20] 104 % of control | [21] 107 % of control

CNC(=S)N/N=C(\c1ccccc1)c1ccccn1
inactive: [10] 95 % of control | [21] 100 % of control | [22] 104 % of control | [11] 106 % of control | [23] 102 % of control | [24] 95 % of control | [12] 104 % of control | dose: 400.0 mg/kg/injection, schedule: Q01DX009 (ip), vehicle: saline with Tween-80 102 % of control | [25] 98 % of control

Cc1c([N+](=O)[O-])cc(C(C)(C)C)c(OC(=S)N(C)C)c1[N+](=O)[O-]
inactive: dose: 25.0 mg/kg/injection, schedule: Q04DX002 (ip), vehicle: saline with Tween-80 105 % of control | dose: 100.0 mg/kg/injection, schedule: Q04DX002 (ip), vehicle: saline with Tween-80 86 % of control

CC(=O)OC1CCC(C)(C2CCC3(C)C(C(C)CCCC(C)C)CCC3C2CC(=O)O)C(=O)C1 (centres undefined)
inactive: [22] 87 % of control | [23] 97 % of control | [24] 91 % of control | [25] 91 % of control

O=[N+]([O-])c1ccc(CBr)c(I)c1
inactive: dose: 75.0 mg/kg/injection, schedule: Q01DX001 (ip), vehicle: other 98 % of control | dose: 150.0 mg/kg/injection, schedule: Q01DX001 (ip), vehicle: other 102 % of control | dose: 300.0 mg/kg/injection, schedule: Q01DX001 (ip), vehicle: other 94 % of control

CCNCCCNc1ccnc2cc(Cl)ccc12
inactive: dose: 10.0 mg/kg/injection, schedule: Q01DX001 (ip), vehicle: saline 96 % of control | dose: 20.0 mg/kg/injection, schedule: Q01DX001 (ip), vehicle: saline 98 % of control | dose: 40.0 mg/kg/injection, schedule: Q01DX001 (ip), vehicle: saline 93 % of control
